{
  "source": "patent US20230210792A1",
  "about": "“USE OF A COMBINATION OF […] A CXCR-2 INHIBITORS FOR THE TREATMENT OR PREVENTION OF FAMILIAL MEDITERRANEAN FEVER (FMF) AND FLARE-UPS THEREOF” (ARISTEA THERAPEUTICS, INC., priority 2020, published 2023)",
  "origin": "cited, not measured here",
  "data": [
    {"smiles": "COc1cc2c(c(OC)c1OC)-c1ccc(OC)c(=O)cc1[C@@H](NC(C)=O)CC2", "note": "[Colchicine]", "values": [
      {"measurement": "Peak concentrations occur in (time to peak)", "setting": "absorbed from the gastrointestinal tract", "result": "0.5 to 2", "unit": "h"},
      {"measurement": "eliminated unchanged in the urine", "setting": "metabolized in the liver, excreted primarily in the feces", "result": "10-20%"}
    ]}
  ]
}
